{
  "source": "patent US20240158359A1",
  "about": "“HYDROLYSIS-RESISTANT ESTERS FOR DRUG AND IMAGING AGENT DELIVERY” (The Board of Trustees of the University of lllinois, priority 2022, published 2024)",
  "key": {"[1]": {"test_system": "lipase, human carboxyesterase-2, monoacylglycerol lipase, fatty acid amide hydrolase, and aldehyde dehydrogenase 1A1", "assay": "Enzyme selectivity assay for Compound 4 against panel of ester-cleaving enzymes", "assay_type": "in vitro ADME", "conditions": "5 μM, 10 mU of each enzyme (ALDH 1A1 100 nM), 37° C.", "method": "(§1) Following this set of experiments, we subjected Compound (4) to acidic (pH 5) and alkaline (pH 9) conditions to account for the various pH gradients in the body. For these experiments we used the Britton-Robinson buffer system. […] These include lipase, human carboxyesterase-2, monoacylglycerol lipase, fatty acid amide hydrolase, and aldehyde dehydrogenase 1A1.\nEnzyme Selectivity Assay for Compound 4. […] Compound 4 was incubated with 10 mU of each enzyme at 37° C. for 30 min before ATP-MgSO4 and luciferase were added to initiate bioluminescence production. […] ALDH 1A1 was used at a final concentration of 100 nM."}, "A549-Luc2 tumors": {"test_system": "A549-Luc2 tumors", "assay": "BL imaging of tumor hypoxia in a lung cancer model", "assay_type": "in vivo, NU/J mice", "conditions": "2.2 μmol/kg", "method": "NU/J mice (male, ˜5-weeks old) were inoculated with A549-Luc2 lung cancer cells (5×10^6) in both flanks. Testing of BL660-NTR commenced after tumors had grown to a volume of ˜300 mm^3 (˜4 weeks). First, we performed imaging using BL660-NTR, which was administered systemically via retroorbital injection (ROI) (FIG. 5a (upper horizontal row of points) and FIG. 14). ROIs were drawn around each tumor and the luminescent count was summed for each animal. […] The BL intensity appears to decrease slightly after 15 mins and levels off until the end of the experiment (75 mins) (FIG. 5c).\nNext, to distinguish between NTR activation and off-target ester hydrolysis, we employed Compound (4) as a control reagent, which only differs in that the nitro trigger is absent (FIG. 1a). After approximately 20 hours, the same animals were treated with Compound (4) and imaged (FIG. 5b and FIG. 15). This delay was to ensure the probe had fully cleared from the first experiment. […] The total luminescent count after 15 mins for Compound 4 was only 4.0±0.7×10^3; whereas the corresponding readout was 16.6±2.5×10^3 for BL660-NTR. This represents a […] difference, indicating successful detection of tumor hypoxia (FIG. 5d).\nNU/J mice bearing A549-Luc2 tumors were anesthetized using isoflurane (1-3% for maintenance; up to 5% for induction) in oxygen from a precision vaporizer. After testing to ensure animals are fully under anesthesia, an initial background scan is recorded. BL660-NTR or compound 4 formulated in 3:7 v/v DMSO:PBS. The solution was filtered through a […] sterile filter immediately prior to use. The typical injection volume is ˜100 μM at a dose of 2.2 μmol/kg. The solution was then administered via retroorbital injection. Images were captured using the IVIS® imaging system at 5, 15, 30, 45, 60, and 75 minutes after injection. Bioluminescence light was collected in open mode (no filters were applied). Regions of interest (“ROIs”) were drawn around each tumor and summed for each animal. The signal intensity was quantified using the Living Image Analysis Software and is represented in FIGS. 5c and 5d.\nGeneration of a Subcutaneous Lung Cancer Model: A549 cells were treated with vehicle (media only) or 50 μM DETA NONOate in media for 10 days. Cells were washed with PBS, resuspended in serum-free media (Hams F-12K), and mixed 1:1 with Geltrex (v/v) (to a final concentration of 5×10^7 cells/mL). Tumors were generated by subcutaneously injecting 100 μL of these cell solutions into the flanks of 4-week-old Nu/J mice (The Jackson Laboratory stock #: 002019).\nBL660-NTR was dissolved in DMSO and diluted with PBS (3:7 v/v DMSO:PBS). The solution was filtered through a […] sterile filter immediately prior to use. The typical injection volume is ˜100 μM at a dose of 2.2 μmol/kg.\nCompound 4 was dissolved in DMSO and diluted with PBS (3:7 v/v DMSO:PBS). The solution was filtered through a […] sterile filter immediately prior to use. The typical injection volume is ˜100 μM at a dose of 2.2 μmol/kg."}, "porcine liver esterase": {"test_system": "porcine liver esterase", "assay": "Esterase reactivity: treatment with porcine liver esterase, BL readout", "assay_type": "in vitro ADME", "conditions": "porcine liver esterase 0.1 units/mL; versus Compound (1)", "text": "The enzymatic rates, reported as total luminescence counts per minute, in descending order are: Compound (1) (31.0±6.8×10^2), (3) (9.5±1.2×10^2), and (2) (0.6±0.1×10^2) (FIG. 1c and FIG. 9). The greater stability imparted by the aromatic ring is not surprising since esterase reactivity can be readily attenuated with bulkier substituents."}, "4T1-Luc cells": {"test_system": "4T1-Luc cells", "assay": "Ester stability in live 4T1-Luc cells, BL imaging", "assay_type": "cell-based, murine", "conditions": "10 μM, 30 mins at 37° C.", "method": "First, we prepared BL660-Me, a methyl ester derivative of BL660 as shown in FIG. 2a for comparison to the benzyl ester (4) of FIG. 1a. Next, we cultured 4T1 murine breast cancer cells, stably expressing the luciferase enzyme (4T1-Luc). The cells were then treated with a DMSO (dimethyl sulfoxide) vehicle control, BL660-Me or Compound (4) (FIG. 3a and FIG. 10a, b, c respectively?). Imaging was performed using the IVIS In Vivo Imaging System.\n4T1-Luc cell was cultured in phenol red-free RPMI 1640 (ATCC) with 10% fetal bovine serum (FBS, Sigma Aldrich), and 1% penicillin/streptomycin (Corning).\nEvaluation of BL660-Me and 4 in 4T1-Luc Cells. 4T1-Luc cells (180K) were seeded into 24-well plates and incubated for 24 hours. The cells were ˜85% confluent. The media was removed and replaced with serum-free RPMI 1640. An initial background scan was recorded on an IVIS imaging system in open mode where no filters were applied. Cells were then treated with DMSO (2.5 μL, 0.5%), BL660-Me, or compound 4 in DMSO (10 μM final concentration). After 30 minutes incubation at 37° C., bioluminescence was collected. ROIs were drawn around each well. The total luminescence count for each well for a given condition was averaged. The signal intensity was quantified using the Living Image Analysis Software."}, "[2]": {"assay": "Hydrolytic stability of BL660 esters in PBS, luciferase BL readout", "assay_type": "physicochemical", "conditions": "PBS pH 7.4, 37° C.; versus Compound (1)", "method": "We began our analysis of stability by incubating BL660 esters of Compound (1), Compound (2), and Compound (3) at 37° C. in PBS (phosphate-buffered saline) (pH 7.4). After 1, 6, and 12 hours, luciferase was added (10mU, 37° C., pH 7.4) to initiate BL production. The rate of hydrolysis, reported as total luminescence counts per hour, indicates hydrolysis in descending order is: Compound (1) (13.9±1.4×10^3); Compound (2) (3.3±0.6×10^3), and Compound (3) (1.0±0.1×10^3) (FIG. 1b, wherein the esters are indicated on the horizontal axis) and FIG. 8 (wherein the respective timeline plots are identified beneath the horizontal axis as (1), (2), etc.). Luminescent counts were recorded using an IVIS In Vivo Imaging System. […] Without wishing to be bound by any theory, we speculate hydrolysis of (3) may involve an SN1 mechanism, thus favoring formation of a double benzylic carbocation."}, "[3]": {"assay": "Hydrolytic stability of Compound (4) in Britton-Robinson buffer at pH 5, 7.4 and 9", "assay_type": "physicochemical", "conditions": "10 μM", "method": "as §1\nCompound (4) (10 μM final concentration with 1% DMSO) was first incubated in Britton-Robinson buffer (pH 5, 7.4 and 9) at 37° C. for 2, 3 and 4 hrs. Then the pH's were adjusted to 7.4. Luminescence was measured by blocking excitation light and measuring emissions with 660 nm gating. Total volume of the reaction mixture was maintained at 100 μL. To the 50 μL of this reaction mixture was ATP-MgSO4 (45 μL, prepared by mixing 17.78 mM ATP-Mg and 35.56 mM MgSO4 in 1:1 ratio in PBS buffer) and the reaction was initiated with Luciferase (5 μL, 0.25 mg/mL in PBS containing 10% glycerol)."}},
  "data": [
    {"smiles": "CCN(CC)c1ccc(C=CC=CC2=NC(C(=O)OC(c3ccccc3)C(C)C)CS2)cc1", "note": "(stereo not drawn) [Compound (4)]", "values": [
      {"measurement": "activation on exposure to ester-cleaving enzymes", "setting": "[1]", "value": "minimal activation"},
      {"measurement": "BL signal in the tumors (in words)", "setting": "A549-Luc2 tumors; 5 to 75 min after retroorbital injection", "value": "barely discernable from background"},
      {"measurement": "total luminescent count in tumors after 15 mins", "setting": "A549-Luc2 tumors; 15 mins after retroorbital injection, NU/J mice with A549-Luc2 tumors", "value": "4.0±0.7×10^3 total luminescent count"},
      {"measurement": "esterase stability relative to the parent benzyl ester", "setting": "porcine liver esterase", "value": "about 68 fold"},
      {"measurement": "total luminescence count", "setting": "4T1-Luc cells", "value": "3.1±1.2×10^3 total luminescence count"},
      {"measurement": "resistance to hydrolysis relative to the parent benzyl ester", "setting": "[2]", "value": "about 140 fold"},
      {"measurement": "rate of hydrolysis at pH 5.0", "setting": "[3]; Britton-Robinson buffer pH 5.0, 37° C., 2, 3 and 4 hrs", "value": "25.7±9.6×10^2 total luminescence counts per hour"},
      {"measurement": "rate of hydrolysis at pH 7.4", "setting": "[3]; Britton-Robinson buffer pH 7.4, 37° C., 2, 3 and 4 hrs", "value": "8.6±1.3×10^2 total luminescence counts per hour"},
      {"measurement": "rate of hydrolysis at pH 9.0", "setting": "[3]; Britton-Robinson buffer pH 9.0, 37° C., 2, 3 and 4 hrs", "value": "52.8±20.7×10^2 total luminescence counts per hour"}
    ]}
  ]
}
